# From PubChem BioAssay AID1963425 (Molecular Pharmacology Branch, DTP, NCI, 2024)
# Where “and” joins values, the source holds several entries; their conditions need not be identical. Equal entries are not always repeated.
# System: 323965-272-R-J2-PDC complex spheroid growth, % test/control
# Test: Anticancer human tumor 323965-272-R-J2-PDC patient-derived pancreatic carcinoma cell line growth inhibition [Asc]
# Conditions: for viability, T/C: stronger effect = lower value
# Protocol: Multicellular complex tumor spheroid response to apoptosis pathway targeting inhibitors Alrizomadlin, Pelcitoclax, and Dasminapant in combination with a variety of drugs and investigational agents in selected tumor cell lines
# The MDM2 inhibitor alrizomadlin, the Bcl-2/Bcl-xL inhibitor pelcitoclax, and the IAPs inhibitor dasminapant were evaluated both individually and in combination with standard of care and investigational anticancer small molecules within a complex spheroid model of solid tumors. . Complex spheroids include a stromal component modeled by human endothelial cells (HUVEC) and fibroblasts modeled by human mesenchymal stem cells (MSCs). The concentration ranges selected for each drug and investigational agent were based upon clinically achievable concentrations if the clinical Cmax of the agent was known.
# Compounds. The drugs and investigational agents: alrizomadlin (APG-115; NSC831270), pelcitoclax (APG-1252; NSC835773), dasminapant (APG-1387;NSC834197), TAK-243 (NSC785004), copanlisib (NSC809693), olaparib (NSC753686), talazoparib (NSC767125), cobimetinib (NSC 768068), eltanexor (KPT-8602, NSC 794443), abemaciclib (NSC 768073), sotorasib (NSC818433), adagrasib (NSC 831453), MRTX-1133 (NSC 836407), Iadademestat (ORY1001, NSC 806812), and RMC-4630 (NSC839698), were obtained from the NCI Developmental Therapeutics Program Chemical Repository. The FDA-approved anticancer drug set is available from the Developmental Therapeutics Program at https://dtp.cancer.gov/organization/dscb/obtaining/available plates.htm. […] The stock solutions were prepared in dimethyl sulfoxide (DMSO, Sigma-Aldrich, St. Louis, MO, cat. D2650) at 800-fold the tested concentration and stored at -70 degrees C prior to their use. All drugs and investigational agents were tested over a range starting from a high concentration at or near the clinical Cmax and decreasing in half-log increments. If the clinical Cmax for an agent had not been determined, the highest concentration tested was 10 microM.
# The patient-derived cancer (PDC) cell lines include five colon adenocarcinomas: 186277-243-T-J2-PDC, 616215-338-R-J1-PDC, 439559-082-T-J2-PDC, 463943-066-T-J2-PDC, and 519858-162-T-J1-PDC; three pancreatic carcinomas: 323965-272-R-J2-PDC, 521955-158-R6-J3-PDC, and 521955-158-R2-J5-PDC; two uterine sarcomas: 327498-152-R-J2-PDC and 993429-296-R-J1-PDC; two rhabdomyosarcomas: 755483-174-R-J1-PDC and 772245-204-R-J1-PDC; two soft tissue sarcomas: 126254-015-R-J1-PDC and 494315-158-R-J1-PDC; two malignant fibrous histiocytomas: 317291-083-R-J1-PDC and 596521-263-R-J1-PDC; two breast carcinomas: 171881-019-R-J1-PDC and 885512-296-R-J2-PDC; and one ovarian carcinoma: 6556581-035-R-J-PDC were obtained from the NCI PDMR, (https://pdmr.cancer.gov). The established cell lines HSSY-2 synovial sarcoma (RRID:CVCL 8719), SYO-1 synovial sarcoma (RRID:CVCL_7146), MPNST malignant peripheral neural sheath tumor were obtained from the Sloan Kettering Institute. The following established cell lines were purchased from the American Type Culture Collection (ATCC, Manassas, VA), Sor the received from the NCI repository:, PANC-1 pancreatic carcinoma (CRL-1469, RRID:CVCL_0480), OVCAR-5 ovarian carcinoma (RRID:CVCL_1628), OVCAR-8 ovarian carcinoma (RRID:CVCL_1629), , MCF-7 breast carcinoma (CRL-12584, RRID:CVCL_0031), MDA-MB-231 breast carcinoma (CRL-12532, RRID:CVCL_0062), NCI-H1876 small cell lung carcinoma (CRL-5902, RRID:CVCL_1503), NCI-H510A small cell lung carcinoma (HTB-184, RRID:CVCL_1565), NCI-H1417 (CRL-5869, RRID:CVCL_1469), and NCI-H196 small cell lung carcinoma (CRL-5823, RRID:CVCL_1509). Dr. Peter Houghton (Greehey Children's Cancer Research Institute, University of Texas Health Science Center, San Antonio, TX) provided Rh-18 rhabdomyosarcoma (RRID:CVCL_1659). Pooled donor human umbilical vein endothelial cells (HUVEC, Lonza, cat. CC-2519) and human mesenchymal stem cells (hMSC, Lonza, cat. PT-2501) were purchased from Lonza (Walkersville, MD).
# Cell Culture. […]
# 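Note: compound exposure lasted 7 days starting three days after spheroid seeding.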
# 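Throughout, for viability, T/C: 100% = DMSO vehicle control wells with viability set relative to vehicle.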
compound,measurement,setting,value
O=C(c1ccc(F)c(F)c1Nc1ccc(I)cc1F)N1CC(O)([C@@H]2CCCCN2)C1 + Cc1c(S(C)(=O)=O)c(-c2cc(F)cc(N3CCN(c4ccc(NS(=O)(=O)c5ccc(NC(CCN6CCC(C(=O)OCCCP(=O)(O)O)CC6)CSc6ccccc6)c(S(=O)(=O)C(F)(F)F)c5)cc4)CC3)c2)c(-c2ccc(Cl)cc2)n1C(C)C,IC50,"curve of first compound, second compound 0.0316 µM",139 nM
same,IC50,"curve of first compound, second compound 0.1 µM",133 nM
same,IC50,"curve of first compound, second compound 0.316 µM",81.6 nM
same,IC50,"curve of first compound, second compound 1 µM",51.8 nM
same,IC50,"curve of first compound, second compound 3.16 µM",29.6 nM
same,IC50,"curve of first compound, second compound 10 µM",20.9 nM
same,"viability, T/C","second compound 0.0316 µM, first compound 0.00316 µM",91%
same,"viability, T/C","second compound 0.0316 µM, first compound 0.01 µM",89.6%
same,"viability, T/C","second compound 0.0316 µM, first compound 0.0316 µM",77.3%
same,"viability, T/C","second compound 0.0316 µM, first compound 0.1 µM",54.5%
same,"viability, T/C","second compound 0.0316 µM, first compound 0.316 µM",35.2%
same,"viability, T/C","second compound 0.0316 µM, first compound 1 µM",16.4%
same,"viability, T/C","second compound 0.1 µM, first compound 0.00316 µM",115%
same,"viability, T/C","second compound 0.1 µM, first compound 0.01 µM",103%
same,"viability, T/C","second compound 0.1 µM, first compound 0.0316 µM",76.5%
same,"viability, T/C","second compound 0.1 µM, first compound 0.1 µM",59.6%
same,"viability, T/C","second compound 0.1 µM, first compound 0.316 µM",30%
same,"viability, T/C","second compound 0.1 µM, first compound 1 µM",15.1%
same,"viability, T/C","second compound 0.316 µM, first compound 0.00316 µM",98.2%
same,"viability, T/C","second compound 0.316 µM, first compound 0.01 µM",98.7%
same,"viability, T/C","second compound 0.316 µM, first compound 0.0316 µM",68.1%
same,"viability, T/C","second compound 0.316 µM, first compound 0.1 µM",47.4%
same,"viability, T/C","second compound 0.316 µM, first compound 0.316 µM",21.9%
same,"viability, T/C","second compound 0.316 µM, first compound 1 µM",10.4%
same,"viability, T/C","second compound 1 µM, first compound 0.00316 µM",88.8%
same,"viability, T/C","second compound 1 µM, first compound 0.01 µM",70.5%
same,"viability, T/C","second compound 1 µM, first compound 0.0316 µM",61.5%
same,"viability, T/C","second compound 1 µM, first compound 0.1 µM",40.3%
same,"viability, T/C","second compound 1 µM, first compound 0.316 µM",16.7%
same,"viability, T/C","second compound 1 µM, first compound 1 µM",7.35%
same,"viability, T/C","second compound 3.16 µM, first compound 0.00316 µM",82%
same,"viability, T/C","second compound 3.16 µM, first compound 0.01 µM",63.5%
same,"viability, T/C","second compound 3.16 µM, first compound 0.0316 µM",52.6%
same,"viability, T/C","second compound 3.16 µM, first compound 0.1 µM",28.2%
same,"viability, T/C","second compound 3.16 µM, first compound 0.316 µM",10.3%
same,"viability, T/C","second compound 3.16 µM, first compound 1 µM",3.52%
same,"viability, T/C","second compound 10 µM, first compound 0.00316 µM",78.6%
same,"viability, T/C","second compound 10 µM, first compound 0.01 µM",66.5%
same,"viability, T/C","second compound 10 µM, first compound 0.0316 µM",39.3%
same,"viability, T/C","second compound 10 µM, first compound 0.1 µM",22.3%
same,"viability, T/C","second compound 10 µM, first compound 0.316 µM",7.23%
same,"viability, T/C","second compound 10 µM, first compound 1 µM",3.38%
C=C(F)C(=O)N1CCN(c2nc(OCC3CCCN3C)nc3c2CCN(c2cccc4cccc(Cl)c24)C3)CC1CC#N (stereo not drawn),"viability, T/C",compound 0.0316 µM,56.9% and 67.8% and 73.2%
same,"viability, T/C",compound 0.1 µM,51.6% and 58.2% and 53.8%
same,"viability, T/C",compound 0.316 µM,47.7% and 60% and 57.1%
same,"viability, T/C",compound 1 µM,59% and 70.1% and 72.8%
same,"viability, T/C",compound 3.16 µM,61.5% and 76.8% and 82.5%
same,IC50,curve of compound,3550 nM and 4840 nM and 5670 nM
